Laboratory results reported in patent US7658943B2, “Oral pharmaceutical composition for soft capsules containing vinorelbine and method of treatment” (R.P. Scherer Technologies, LLC, priority 2002, dated 2010).
Read-outs that look alike come from different tables or passages of the source.

Experiments:
[1] = Storage stability: impurity content by HPLC; type: physicochemical; details: 5° C.±3° C.
Procedure: The HPLC chromatographic method used included an assembly fitted with an automatic injector and variable wavelength UV detector set at 267 nm. The column was stainless steel with a length of 150 mm and diameter of 3.9 mm and filled with octadecylsilyl silica gel—300 Å—spherical, 5 μm. The mobile phase was carried out with sodium decanesulfonate (1.2217 g), phosphate buffer 0.05 M (pH=4.2) 380 ml, and methanol (620 ml), with a thermostatically-controlled column temperature of +40° C. and a mobile phase flow rate of 1 ml/min.
Each batch was stored over the analysis time at 5° C.±3° C.

[2] = 5° C.±3° C., aqueous vinorelbine 10 mg/ml as base
Procedure: In this experiment, pure powder form vinorelbine was compared to soft capsule encapsulated vinorelbine liquid fill composition of the invention (Formula 1.). Coloration was measured at 5° C.±3° C. by ultraviolet absorbance at 420 nm of aqueous vinorelbine at 10 mg/ml expressed as vinorelbine base. […] Mean variation was calculated as from the difference between the average of the results at the per given analysis time and the average of the results at the initial time (t0) for several batches (3 batches for the vinorelbine powder, 3 batches for the 20 mg soft capsules, 4 batches for the 30 mg soft capsules, 3 batches for the 40 mg soft capsules, 3 batches for the 80 mg soft capsules.)

Impurity content, max. variation (t0→analysis time) ([1]; 6 months): 0.21 Relative Area Percent
Impurity content, mean variation (t0→analysis time) ([1]; 6 months): 0.12 Relative Area Percent
Impurity content, max. variation (t0→analysis time) ([1]; 12 months): 0.44 Relative Area Percent
Impurity content, mean variation (t0→analysis time) ([1]; 12 months): 0.39 Relative Area Percent
Impurity content, max. variation (t0→analysis time) ([1]; 18 months): 0.85 Relative Area Percent
Impurity content, mean variation (t0→analysis time) ([1]; 18 months): 0.78 Relative Area Percent
Impurity content, max. variation (t0→analysis time) ([1]; 24 months): 1.32 Relative Area Percent
Impurity content, mean variation (t0→analysis time) ([1]; 24 months): 1.13 Relative Area Percent
Color evolution (absorbance at 420 nm), max. variation (t0→analysis time) ([2]; 6 months): 0.012
Color evolution (absorbance at 420 nm), mean variation (t0→analysis time) ([2]; 6 months): 0.006
Color evolution (absorbance at 420 nm), max. variation (t0→analysis time) ([2]; 12 months): 0.015
Color evolution (absorbance at 420 nm), mean variation (t0→analysis time) ([2]; 12 months): 0.013
Color evolution (absorbance at 420 nm), max. variation (t0→analysis time) ([2]; 18 months): 0.025
Color evolution (absorbance at 420 nm), mean variation (t0→analysis time) ([2]; 18 months): 0.017
Color evolution (absorbance at 420 nm), max. variation (t0→analysis time) ([2]; 24 months): 0.041
Color evolution (absorbance at 420 nm), mean variation (t0→analysis time) ([2]; 24 months): 0.029
Compound: CCC1=C[C@@H]2CN(C1)Cc1c([nH]c3ccccc13)[C@@](C(=O)OC)(c1cc3c(cc1OC)N(C)[C@H]1[C@@](O)(C(=O)OC)[C@H](OC(C)=O)[C@]4(CC)C=CCN5CC[C@]31[C@@H]54)C2 [Vinorelbine (powder), 3′,4′-didehydro-4′-deoxy-C′-norvincaleucoblastine]
